Our source for the pest or weed control values is patent US8680012B2, “4-phenyl-pyrane-3,5-diones,4-phenyl-thiopyrane-3,6-diones and cyclohexanetriones as novel herbicides” (Syngenta Crop Protection LLC, priority 2006, dated 2014).

Type in all cases: in vivo
Assay [1] relates to Avena fatua (AVEFA). Put plainly: Example A post-emergence herbicidal activity, glasshouse pot test. The conditions noted are these: 360 h, rate 125 g/ha, evaluated 15 days after spraying, read-out: Post-emergence activity AVEFA (100=total damage to plant; 0=no damage to plant). The procedure:
(§1) Seeds of a variety of test species were sown in standard soil in pots. After cultivation for one day (pre-emergence) or after 10 days cultivation (post-emergence) under controlled conditions in a glasshouse, the plants were sprayed with an aqueous spray solution derived from the formulation of the technical active ingredient in 0.6 ml acetone and 45 ml formulation solution containing 10.6% Emulsogen EL (Registry number 61791-12-6), 42.2% N-methylpyrrolidone, 42.2% dipropylene glycol monomethyl ether (Registry number 34590-94-8) and 0.2% X-77 (Registry number 11097-66-8). The test plants were then grown in a greenhouse under optimum conditions until, 15 days later for post-emergence and 20 days for pre-emergence, the test was evaluated (100=total damage to plant; 0=no damage to plant).
(§2) Alopecurus myosuroides (ALOMY), Avena fatua (AVEFA), Lolium perenne (LOLPE), Setaria faberi (SETFA), Digitaria sanguinalis (DIGSA), Echinochloa crus-galli (ECHCG)

In assay [2] the test system is Lolium perenne (LOLPE). The description is as above. The conditions noted are these: 360 h, rate 125 g/ha, evaluated 15 days after spraying, read-out: Post-emergence activity LOLPE (100=total damage to plant; 0=no damage to plant). As to the method: as §1, §2
Assay [3] relates to Echinochloa crus-galli (ECHCG). The assay is described as above. The following applies: 360 h, rate 125 g/ha, evaluated 15 days after spraying, read-out: Post-emergence activity ECHCG (100=total damage to plant; 0=no damage to plant). As to the method: as §1, §2
Assay [4] concerns Digitaria sanguinalis (DIGSA). Described as above. The following applies: 360 h, rate 125 g/ha, evaluated 15 days after spraying, read-out: Post-emergence activity DIGSA (100=total damage to plant; 0=no damage to plant). The procedure:
as §1, §2

Assay [5] deals with Alopecurus myosuroides (ALOMY). The description is as above. The following applies: 360 h, rate 125 g/ha, evaluated 15 days after spraying, read-out: Post-emergence activity ALOMY (100=total damage to plant; 0=no damage to plant). The procedure:
as §1, §2

Assay [6] deals with Setaria faberi (SETFA). The assay is described as above. The following applies: 360 h, rate 125 g/ha, evaluated 15 days after spraying, read-out: Post-emergence activity SETFA (100=total damage to plant; 0=no damage to plant). The procedure: as §1, §2
The test system of assay [7] is Avena fatua (AVEFA). Description: Example A pre-emergence herbicidal activity, glasshouse pot test. The following applies: 480 h, rate 250 g/ha, evaluated 20 days after spraying, read-out: Pre-emergence activity AVEFA (100=total damage to plant; 0=no damage to plant). As to the method: as §1, §2
Assay [8] has as its system Lolium perenne (LOLPE). The assay is described as above. The following applies: 480 h, rate 250 g/ha, evaluated 20 days after spraying, read-out: Pre-emergence activity LOLPE (100=total damage to plant; 0=no damage to plant). The procedure: as §1, §2
The test system of assay [9] is Echinochloa crus-galli (ECHCG). The description is as above. The following applies: 480 h, rate 250 g/ha, evaluated 20 days after spraying, read-out: Pre-emergence activity ECHCG (100=total damage to plant; 0=no damage to plant). As to the method: as §1, §2
The subject of assay [10] is Digitaria sanguinalis (DIGSA). The assay is described as above. The following applies: 480 h, rate 250 g/ha, evaluated 20 days after spraying, read-out: Pre-emergence activity DIGSA (100=total damage to plant; 0=no damage to plant). As to the method: as §1, §2
The test system of assay [11] is Alopecurus myosuroides (ALOMY). Described as above. The following applies: 480 h, rate 250 g/ha, evaluated 20 days after spraying, read-out: Pre-emergence activity ALOMY (100=total damage to plant; 0=no damage to plant). The procedure:
as §1, §2

For assay [12], the system named is Setaria faberi (SETFA). The description is as above. The conditions noted are these: 480 h, rate 250 g/ha, evaluated 20 days after spraying, read-out: Pre-emergence activity SETFA (100=total damage to plant; 0=no damage to plant). The procedure:
as §1, §2

In assay [13] the test system is Avena fatua (AVEFA). Description: Example B pre-emergence herbicidal activity, glasshouse pot test. The conditions noted are these: 312 h, evaluated after 13 days, read-out: Pre-emergence activity AVEFA (100=total damage to plant; 0=no damage to plant); for pest or weed control at 1000 g/ha: rate 1000 g/ha. Put shortly:
(§3)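 Compound sprayed in acetone/water (50:50) plus 0.5% Tween 20 onto potted soil one day post-sowing, or onto seedlings after 8 days. Scored 0–100 for damage after 13 days.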

The subject of assay [14] is Amaranthus retroflexus (AMARE). The assay is described as above. The conditions noted are these: 312 h, evaluated after 13 days, read-out: Pre-emergence activity AMARE (100=total damage to plant; 0=no damage to plant); for pest or weed control at 1000 g/ha: rate 1000 g/ha. The procedure, abridged:
as §3

The subject of assay [15] is Echinochloa crus-galli (ECHCG). The description is as above. The following applies: 312 h, evaluated after 13 days, read-out: Pre-emergence activity ECHCG (100=total damage to plant; 0=no damage to plant); for pest or weed control at 1000 g/ha: rate 1000 g/ha. The procedure, abridged:
as §3

The subject of assay [16] is Alopecurus myosuroides (ALOMY). Described as above. The following applies: 312 h, evaluated after 13 days, read-out: Pre-emergence activity ALOMY (100=total damage to plant; 0=no damage to plant); for pest or weed control at 1000 g/ha: rate 1000 g/ha. Put shortly: as §3
For assay [17], the system named is Setaria faberi (SETFA). Described as above. The conditions noted are these: 312 h, evaluated after 13 days, read-out: Pre-emergence activity SETFA (100=total damage to plant; 0=no damage to plant); for pest or weed control at 1000 g/ha: rate 1000 g/ha. Put shortly:
as §3

Assay [18] deals with Solanum nigrum (SOLNI). The assay is described as above. The conditions noted are these: 312 h, evaluated after 13 days, read-out: Pre-emergence activity SOLNI (100=total damage to plant; 0=no damage to plant); for pest or weed control at 1000 g/ha: rate 1000 g/ha. The procedure, abridged:
as §3

The subject of assay [19] is Avena fatua (AVEFA). Description: Example B post-emergence herbicidal activity, glasshouse pot test. The following applies: 312 h, evaluated after 13 days, read-out: Post-emergence activity AVEFA (100=total damage to plant; 0=no damage to plant); for pest or weed control at 1000 g/ha: rate 1000 g/ha. The procedure, abridged:
as §3

The test system of assay [20] is Amaranthus retroflexus (AMARE). Described as above. The conditions noted are these: 312 h, evaluated after 13 days, read-out: Post-emergence activity AMARE (100=total damage to plant; 0=no damage to plant); for pest or weed control at 1000 g/ha: rate 1000 g/ha. The procedure, abridged:
as §3

For assay [21], the system named is Echinochloa crus-galli (ECHCG). Described as above. The following applies: 312 h, evaluated after 13 days, read-out: Post-emergence activity ECHCG (100=total damage to plant; 0=no damage to plant); for pest or weed control at 1000 g/ha: rate 1000 g/ha. Put shortly:
as §3

Assay [22] concerns Alopecurus myosuroides (ALOMY). The description is as above. The following applies: 312 h, evaluated after 13 days, read-out: Post-emergence activity ALOMY (100=total damage to plant; 0=no damage to plant); for pest or weed control at 1000 g/ha: rate 1000 g/ha. Put shortly:
as §3

The subject of assay [23] is Setaria faberi (SETFA). The assay is described as above. The conditions noted are these: 312 h, evaluated after 13 days, read-out: Post-emergence activity SETFA (100=total damage to plant; 0=no damage to plant); for pest or weed control at 1000 g/ha: rate 1000 g/ha. Put shortly: as §3
The subject of assay [24] is Solanum nigrum (SOLNI). The description is as above. The following applies: 312 h, evaluated after 13 days, read-out: Post-emergence activity SOLNI (100=total damage to plant; 0=no damage to plant); for pest or weed control at 1000 g/ha: rate 1000 g/ha. Put shortly: as §3

Each structure is given as a SMILES string.

For the molecule `CCc1ccc(-c2ccc(Cl)c(Cl)c2)cc1C1=C(O)C(C)(C)OC(C)(C)C1=O` [Compound A-42], the pest or weed control at 125 g/ha in assay [1] was determined as 90%; in assay [2], 70%; in [3], 100%; in [4], 100%; in assay [5], 80%; in assay [6] it was 100%. The pest or weed control at 250 g/ha in assay [7] stood at 30%; in [8], 50%; in assay [9] it was 80%; in assay [10], 100%; in assay [11] it was 100%; in [12] it was 100%.

Turning to `CCc1ccc(-c2ccc(Cl)cc2)cc1C1=C(OC(=O)OC)C(C)(C)OC(C)(C)C1=O` [Compound D-16], the pest or weed control at 1000 g/ha in [13] was 0%; in assay [14] it was 0%; in assay [15], 90%; in assay [16], 50%; in assay [17] it was 100%; in [18], 0%. Moreover, the pest or weed control at 1000 g/ha was found to be 20% in [19]; 0% in [20]; 100% in [21]; 90% in assay [22]; 100% in [23]; 0% in assay [24].

For `CCc1ccc(-c2ccc(Cl)cc2)cc1C1=C(O)C(C)(C)OC(C)C1=O` (single isomer, unassigned) [Compound A-26], the pest or weed control at 1000 g/ha in [13] stood at 80%; in [14], 0%; in [15], 100%; in assay [16], 80%; in assay [17] it was 100%; in assay [18], 0%. In addition, the pest or weed control at 1000 g/ha in assay [19] is 100%; in assay [20], 100%; in assay [21], 100%; in [22], 100%; in [23] it was 100%; in [24], 50%.

`CCc1ccc(-c2ccc(Cl)nc2)cc1C1=C(O)C(C)(C)C(=O)C(C)(C)C1=O` [Compound B-9]: the pest or weed control at 250 g/ha in [13] (rate 250 g/ha), in [14] (rate 250 g/ha), in [15] (rate 250 g/ha), in [16] (rate 250 g/ha), in assay [17] (rate 250 g/ha) and in [18] (rate 250 g/ha) was 0% throughout. Further, the pest or weed control at 250 g/ha in assay [19] (rate 250 g/ha) was determined as 0%; in assay [20] (rate 250 g/ha), 40%; in [21] (rate 250 g/ha), 80%; in [22] (rate 250 g/ha) it was 40%; in [23] (rate 250 g/ha), 70%; in [24] (rate 250 g/ha), 20%.

Consider `Cc1ccc(-c2ccc(F)c(F)c2)cc1C1=C(O)C(C)(C)OC(C)(C)C1=O` [Compound A-24], for which the pest or weed control at 1000 g/ha in assay [13] amounted to 60%; in [14], 20%; in assay [15], 100%; in assay [16], 80%; in assay [17], 90%; in assay [18] it was 20%. Further, the pest or weed control at 1000 g/ha in assay [19] is 80%; in [20], 90%; in assay [21], 100%; in [22], 100%; in assay [23], 100%; in [24] it was 70%.
